Laboratory results reported in PubChem BioAssay AID179 (DTP/NCI, 2004).
Where “and” joins values, the source holds several entries; their conditions need not be identical. Equal values may be shown once. Calls of active or inactive are those of the source.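 Rule for the calls: active = compounds giving half or more protection of infected cells from virus-caused growth loss, again on retest; inactive = the rest.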

Test system: CEM cells HIV-1 protection, formazan growth assay
Assay: NCI AIDS Antiviral Assay
Details: for IC50: measured here: growth of uninfected CEM cells
Outline: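 CEM (human) cells, HIV-1 infected vs uninfected, 5-point dosing, formazan growth read-out. Retest threshold 50% protection.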

## Fc1cccc(C2SCc3nc4cc5ccccc5cc4n32)c1 (stereo not given)
  EC50: > 200 µM
  IC50: > 200 µM

## CN(C)Cc1c[nH]c2nc[nH]c(=O)c12
  EC50: > 200 µM
  IC50: 25.7 µM

## COc1ccc(C(=O)/C(Br)=C/C(=O)O)cc1
  EC50: > 427 µM
  IC50: 22.9 µM

## Cn1cc2ccccc2c1-c1nc(F)nc(OCC(=O)[C@H]2CCC3[C@@H]4CCC5=CC(=O)CC[C@]5(C)C4[C@@H](O)C[C@@]32C)n1 (stereo not given in full)
  EC50: > 9.12 µM
  IC50: 2.75 µM

## CCCC(=O)Nc1cc([N+](=O)[O-])c([N+](=O)[O-])cc1OC
  EC50: > 200 µM
  IC50: 10.7 µM

## c1ccc(C2=NNc3cccc[n+]3C2)cc1
  EC50: > 871 µM
  IC50: 447 µM

## O=[N+]([O-])c1ccc(S(=O)(=O)NCCSSCCNS(=O)(=O)c2ccc([N+](=O)[O-])cc2)cc1
  EC50: > 200 µM
  IC50: 10.5 µM

## CC(=O)N1c2cc(N=NN(C)C)ccc2NC(=O)CC1C (stereo not given)
  EC50: > 200 µM
  IC50: > 200 µM

## CC12c3c4ccc(C=O)c3Oc3ccc(C=O)c(c31)Oc1ccc(C=O)c(c12)O4
  EC50: > 25.1 µM
  IC50: 13.5 µM

## O=C(Nc1ccc(C2=NCCN2)cc1)c1ccc(C(=O)Nc2ccc(C3=NCCN3)cc2)c(Cl)c1
  EC50: > 200 µM
  IC50: 49 µM

## COC(=O)C1C(=O)NC2(C)CC1c1ccccc1O2 (stereo not given)
  outcome: inactive

## CCOC(=O)c1nnsc1NC(=O)NN
  EC50: > 200 µM
  IC50: > 200 µM

## COC(=O)C1CC=CCCC1=O (stereo not given)
  EC50: > 776 µM
  IC50: 275 µM

## COc1cc(N=Nc2ccccc2C(=O)[O-])cc(/C=N/NC(N)=S)c1[O-].[O]=[Mo]=[O].[O]=[Mo]=[O]
  outcome: inactive

## CCCCCCCCCCOC1C(C(C)OCCCN(C)C)OC2OC3(CCCCC3)OC21 (stereo not given)
  EC50: > 200 µM
  IC50: 10.5 µM

## N#C/C(=C\c1cccc(Br)c1)c1nc2ccccc2c(=O)[nH]1
  outcome: inactive

## O=C(O)C1(Cc2ccccc2)Cc2cc3c(cc2C1)CCC3
  EC50: > 200 µM
  IC50: 93.3 µM

## O=c1[nH]c(=O)n(C2OC(CO)C(O)C2O)c2nc(-c3ccc(-c4ccccc4)cc3)cnc12 (stereo not given)
  EC50: > 200 µM
  IC50: > 200 µM

## O=C1CC(c2ccccc2)Oc2cc(O)cc(O)c21 (stereo not given)
  EC50: > 200 µM
  IC50: 34.7 µM and > 200 µM and 55 µM

## CC(=O)Nc1ccc(-c2nnc(SCC(=O)Nc3ccc(Cl)cc3Cl)o2)cc1
  EC50: > 42.7 µM
  IC50: 25.1 µM

## Cc1ccc(C)c(N2C(=O)C(=O)C(c3nc4ccccc4s3)C(=Nc3cccc4c(=O)[nH][nH]c(=O)c34)C2=O)c1 (stereo not given)
  outcome: inactive

## N#CCCN(c1ccc(/C=C2\N=C(Cc3ccccc3)OC2=O)cc1)S(=O)(=O)c1ccccc1
  EC50: 240 µM
  IC50: 275 µM

## CCOC(=O)CCc1c(C)[nH]c2c(C)c3c([nH]c4ccc(Cl)cc43)c(C)c2c1=O
  EC50: > 200 µM
  IC50: 11 µM

## c1ccc(COc2cccc3cccnc23)cc1
  EC50: > 251 µM
  IC50: 110 µM

## O=[As](O)(O)c1cc(N=Nc2ccc(-c3ccc(N=Nc4cc([As](=O)(O)O)c(O)cc4O)cc3)cc2)c(O)cc1O
  EC50: 6.61 µM
  IC50: 7.76 µM

## [N-]=[N+]=Nc1ccccc1-[n+]1noc([O-])c1Br
  EC50: > 457 µM
  IC50: > 457 µM

## Cn1c2ccccc2c2ccc3c(c21)C(=O)c1ccc2c4ccccc4n(C)c2c1C3=O
  EC50: > 200 µM
  IC50: > 200 µM

## COc1ccc2c(c1)CC/C2=C\CC1(C)C(=O)CCC1=O
  EC50: > 200 µM
  IC50: 107 µM

## CN(NC(=O)/C(=C/c1cc(Cl)cc(Cl)c1O)NC(=O)c1ccccc1)c1cnn(-c2ccccc2)c(=O)c1Cl
  EC50: > 200 µM
  IC50: 37.2 µM

## O=S(=O)(O)C(O)CCC(O)S(=O)(=O)O (stereo not given)
  EC50: > 200 µM
  IC50: 40.7 µM

## NC1(CSS(=O)(=O)O)CCN1 (stereo not given)
  EC50: > 200 µM
  IC50: > 200 µM

## CC1=NN(C(=O)Cc2ccccc2)C(=O)/C1=C\c1cccc(O)c1
  EC50: > 22.4 µM
  IC50: > 22.4 µM

## COc1ccccc1/C=C(\C#N)C(=O)O
  EC50: > 646 µM
  IC50: 251 µM

## O=C(O)c1ccc(N=Nc2cc(S(=O)(=O)O)c3cccnc3c2O)cc1
  EC50: > 19.5 µM
  IC50: > 19.5 µM

## CCOP(=O)(OCC)/C(C#N)=C/c1cccn1C
  EC50: 46.8 µM
  IC50: 537 µM

## CCOC(=O)NP(=O)(N1CC1)N1CC1
  EC50: > 200 µM
  IC50: > 200 µM

## CC(=O)NC(CCC(=O)c1ccc(Oc2ccccc2)cc1)(C(=O)O)C(=O)O
  EC50: > 200 µM
  IC50: > 200 µM

## O=C1OCCC1(Br)C(Br)c1ccccc1 (stereo not given)
  EC50: > 200 µM
  IC50: 6.03 µM

## Cn1ccc(C(=O)NCCOCCNC(=O)c2ccn(C)c(=O)c2O)c(O)c1=O
  EC50: > 50.1 µM
  IC50: > 50.1 µM

## CCCCCCCCCCCCN1[C@H]2CCC[C@H]2C(O)[C@@H]2CCC[C@@H]21 (stereo not given in full)
  EC50: > 200 µM
  IC50: 4.9 µM

## Cc1nc2sccn2c1C(N)=O
  EC50: > 200 µM
  IC50: > 200 µM

## S=C(S)N1CCN(c2ccc(Cl)c(Cl)c2)CC1
  EC50: > 200 µM
  IC50: 26.9 µM

## CC1C2Cc3ccc(O)cc3C1(C)CCN2CCC(=O)c1ccccc1 (stereo not given)
  EC50: > 200 µM
  IC50: 27.5 µM

## Cc1ccc2ccccc2c1CC1S(=O)(=O)OCCOS1(=O)=O
  EC50: > 200 µM
  IC50: 115 µM

## Cc1ccc(N=Nc2c(C)c(C#N)c(=S)n(C3OC(CO)C(O)C(O)C3O)c2C)cc1 (stereo not given)
  EC50: > 200 µM
  IC50: 19.1 µM

## CCCCCCCCCCCCCCCCC(C(=O)O)C(=O)O
  EC50: > 21.9 µM
  IC50: > 21.9 µM

## C/C(=C\c1ccccc1)C(O)S(=O)(=O)O (stereo not given)
  outcome: inactive

## C=C1CC(CN2CCC(=O)NC2=O)(c2ccccc2)OC1=O (stereo not given)
  EC50: > 200 µM
  IC50: 1.48 µM

## OC1CCC(COC(c2ccccc2)(c2ccccc2)c2ccccc2)O1 (stereo not given)
  EC50: > 200 µM
  IC50: 24.5 µM

## O=c1[nH]nc(-c2ccc([N+](=O)[O-])cc2)[nH]1
  EC50: > 200 µM
  IC50: > 200 µM

## CC(C)(C)C1CCC(O)(c2ccccc2)CC1 (stereo not given)
  EC50: > 42.7 µM
  IC50: > 42.7 µM

## N=S(=O)(c1ccccc1)c1ccccc1[N+](=O)[O-] (stereo not given)
  EC50: 53.7 µM
  IC50: 91.2 µM

## OCCN(/N=C\c1ccc2ccccc2c1)C1=NCCN1
  EC50: > 200 µM
  IC50: 31.6 µM

## Nc1ncc2c(ncn2CC(O)CO)n1 (stereo not given)
  EC50: > 1200 µM
  IC50: > 1200 µM

## Cc1cn(C2CC3C(COC(C)(C)N3O)O2)c(=O)[nH]c1=O (stereo not given)
  EC50: 7.76 µM
  IC50: > 200 µM

## Cc1noc(NS(=O)(=O)c2ccc(NC(=O)c3ccccc3SC(=O)CCCC[n+]3ccccc3)cc2)c1C
  EC50: 24 µM
  IC50: 53.7 µM

## COC(=O)C1=C(C(=O)OC)C23CC4CCC2(C(=O)C1O3)C4(C)C (stereo not given)
  EC50: > 251 µM
  IC50: 16.6 µM

## O=c1c2c3c(sc2nc2n1N=CN(c1ccc(F)cc1)C2)CCCC3
  EC50: > 200 µM
  IC50: > 200 µM

## Cc1cc(N(CCC#N)CCC#N)ccc1/C=C(\NC(=O)/C=C/c1ccccc1)C(=O)N=[N+]=[N-]
  outcome: inactive

## O=C(CCc1cccc(O)c1)NCCc1cccc(O)c1
  EC50: > 200 µM
  IC50: > 200 µM

## O=C(NN1C(=O)C(Cl)C1c1ccccc1Cl)c1ccccc1O (stereo not given)
  EC50: > 14.8 µM
  IC50: > 14.8 µM

## CC(=O)C(=Cc1ccc(C=C(C(C)=O)C(C)=O)cc1)C(C)=O
  EC50: > 200 µM
  IC50: 0.933 µM

## O=S1(=O)CS(=O)(=O)OCCCCCO1
  EC50: > 537 µM
  IC50: > 537 µM

## COc1ccc(C2=C(C#N)C(=O)OCCN2C)cc1
  EC50: > 200 µM
  IC50: > 200 µM

## CCC[CH2][Sn]([CH2]CCC)([S]CCS(=O)(=O)O)[S]CCS(=O)(=O)O (tested in a mixture with another compound)
  EC50: > 200 µM
  IC50: > 200 µM

## CN(CCCn1ccnc1[N+](=O)[O-])CCCn1ccnc1[N+](=O)[O-]
  EC50: > 200 µM
  IC50: 83.2 µM

## CC(C)(c1ccccc1)C(C)(C)c1nc(-c2ccccc2)cc(-c2ccccc2)n1
  EC50: > 3.72 µM
  IC50: > 3.72 µM

## COc1ccc(C2N(c3ccc(F)c([N+](=O)[O-])c3)C(=O)N3C(c4ccc(OC)cc4)N(c4ccc(F)c([N+](=O)[O-])c4)C(=O)N23)cc1 (stereo not given)
  EC50: > 200 µM
  IC50: 33.9 µM

## N#CCC(=O)N/N=C(\C(=O)Nc1ccc(Cl)c(Cl)c1)C1CN(c2ccccc2)N=C1N (stereo not given)
  EC50: > 79.4 µM
  IC50: > 79.4 µM

## NC1=C(Cl)C(=O)c2ccccc2C1=O
  EC50: > 200 µM

## CC(=O)C1=C(O)C2C3c4c[nH]c5cccc(c45)CC3C(C)(C)N2C1=O (stereo not given)
  outcome: inactive

## CC(C)(O)/C=C\P(C)(=O)c1ccccc1 (stereo not given)
  EC50: > 200 µM
  IC50: > 200 µM

## CC1=C2CC/C(C)=C/CCC3(C)OC3CC/C(C)=C/C2OC1=O (stereo not given)
  EC50: > 200 µM
  IC50: > 200 µM

## CN(C)c1nc(=NCc2ccccc2)ss1
  EC50: > 200 µM
  IC50: 10.2 µM

## COP(C)(=O)C1=CCN(C(=O)OCC[Si](C)(C)C)CC1 (stereo not given)
  EC50: > 200 µM
  IC50: > 200 µM

## OCC1(CO)CCC1(CO)CO
  outcome: inactive

## Cc1cc(C)n2nc(N)c(C#N)c2c1C#N
  EC50: > 12.9 µM
  IC50: > 12.9 µM

## COc1ccc(/C=C(\C#N)c2ccc(OC)cc2)cc1
  EC50: > 200 µM
  IC50: 8.13 µM

## CCOC(OC1=C(C#N)CCC1)C(CC)[Se]c1ccccc1 (stereo not given)
  EC50: > 70.8 µM
  IC50: 52.5 µM

## N#Cc1ccc(Oc2nc3ccccc3nc2C(=O)O)cc1
  EC50: > 200 µM
  IC50: > 200 µM

## CC(CC(C)(C)[N+](C)(C)C)[N+](C)(C)C (stereo not given)
  EC50: > 200 µM
  IC50: > 200 µM

## CC1(C)OC2COC3([C@@H]4OC(C)(C)O[C@@H]4CO)OC(C)(C)OC3C2O1 (stereo not given in full)
  EC50: > 200 µM
  IC50: > 200 µM

## CCCCCCCCC1=C(OC)C(=O)c2c(C)cc(Cl)nc2C1=O
  outcome: inactive

## O=C1CCCC1(CCSc1ccccc1)C(CCCl)Sc1ccccc1 (stereo not given)
  EC50: > 8.91 µM
  IC50: > 8.91 µM

## C#CCCOC(=O)c1ccccc1OC(C)=O
  EC50: > 200 µM
  IC50: > 200 µM

## Cc1cc(C)nc(Nc2nc3ccc([N+](=O)[O-])cc3[nH]2)n1
  EC50: > 871 µM
  IC50: 407 µM

## COc1ccc(O)c(/C(C)=N/NC(=S)N(C)C)c1
  EC50: > 200 µM
  IC50: 10.7 µM

## COc1ccc(CCN2CCc3c(C)c(C#N)c4nc5ccccc5n4c32)cc1OC
  EC50: > 200 µM
  IC50: 53.7 µM

## CCOC(=O)C1(C(=O)OCC)COC(=O)C1CN1Cc2cc3ccccc3nc2C1 (stereo not given)
  EC50: > 427 µM
  IC50: 47.9 µM

## COc1ccc2cc1Oc1cc3c(cc1OC)CC[N+](C)(C)C3Cc1ccc(cc1)Oc1c(OC)c(OC)cc3c1C(C2)[N+](C)(C)CC3 (stereo not given)
  EC50: > 200 µM
  IC50: > 200 µM
